Several values for one entry are separate records, joined by “and”; a condition that tells them apart may be missing. Equal values may be shown once.
How the values were obtained:
MARK3 = target: T1, MARK3 (Homo sapiens, UniProt P27448); assay: ADP-Glo biochemical assay MARK3; conditions: for MARK3 pIC50 / IC50: ADP-Glo assay; for IC50: read-out: MARK3 pIC50 (converted)
T1 construct: purchased MRC PPU
Method: (§1) Biological experimental procedures
(§2) ADP-Glo biochemical assays
(§3) Protein kinase activity in the presence of inhibitor compounds was determined by ADP-Glo assay (Promega), as previously described.1,2 Compounds were serialised using a Labcyte Echo 520 and transferred to 384 well plates (Greiner 784201) followed by the addition 5 µL of substrate containing peptide and ATP at Km in buffer (see Table S6). 5 µL of purified protein was added and the plate was incubated for 60 minutes at room temperature (ng/well; see Table S6). 3 µL of assay mixture was transferred using an Integra Viaflo384 into a white low volume plate (Greiner 781904) prior to the addition of 3 µL of ADP-Glo Reagent™ for a further 40 minute incubation. After incubation with 6 µL of Kinase Detection Reagent for 30 minutes, plate luminescence was read (Pherastar FSX, BMG […]
(§4) 30 mM HEPES pH7.4, 3 mM MgCl2, 3 mM MnCl2, 1.2 mM DTT, 0.01% CHAPS
(§5) Table S6: Conditions for protein kinase ADP-Glo assays
(§6) ATP AT Peptide Peptide Enzyme Enzyme Assay Buffe Min.
(§7) Protein conc. P Peptide name conc. supplier amount supplier vol. r na […]
(§8) NUAK1 µM µM Sakamototide 50 µM Merck 6.7 ng PPU 10 µl A 6
(§9) A µM µM Sakamototide 100 µM Merck 1 ng PPU 10 µl B 2 […]
(§10) aMin. n: Minimum number of technical replicates per compound

in vivo = conditions: male, CD-1, mouse, ip, 5 mg/kg
Method: (§18) To investigate the effect of increasing mouse microsomal stability on in vivo half-lives, 9, 10 and 24 were coadministered with 3 in a mouse PK cassette (5 mgkg^–1, I.P.) (Table 5).
ADMET and PK experimental methods
(§19) Microsomal stability: analysis was performed by Cyprotex Discovery. Briefly, test compounds in
(§20) microsomes (0.5 mg protein/mL) in the presence of NADPH (1 mM) at 37 °C. Aliquots were taken at
(§21) generic LC-MS/MS conditions for compound remaining, allowing the determination of the half-life for
(§22) MDR1-MDCK Permeability (bi-directional): was performed by Cyprotex Discovery. Briefly,
(§23) compounds were administered at 10 µM (1% DMSO final) to the apical or basolateral side of a
(§24) confluent monolayer of MDR1- MDCK cells, then incubated at 37 °C for 60 minutes before appearance
(§25) on the opposite side of the monolayer was determined LC-MS/MS. The efflux ratio (ER) is calculated
(§26) from the ratio of B-A to A-B permeabilities.
(§27) Plasma protein binding: was performed by ChemPartner Co. Ltd. Briefly, compounds in DMSO (1
(§28) µM, 0.2% DMSO final) were added to mouse plasma or brain tissue and dialysed against buffer for 5
(§29) hrs at 37 °C. The compound concentration in each of the plasma and buffer compartments was
(§30) determined by mass spectrometry and used to calculate the percentage compound bound.
(§31) Pharmacokinetic analysis: was performed by ChemPartner Co. Ltd. Male CD-1 mice (N=3 per
(§32) timepoint) were intraperitoneally dosed at 5 mg/kg, as a cassette of five compounds, formulated in 10%
(§33) DMSO, 10% Solutol HS 15, 80% (50 mM citrate buffer pH3.0) at 0.5 mg/mL. At the designated time
(§34) points a blood sample was collected from the facial vein into K2EDTA tubes, and plasma separated by
(§35) centrifugation. Mice were euthanised by CO2 inhalation and brains were dissected and homogenised.
(§36) Compound levels were quantified by LC-MS/MS and PK parameters estimated by a non-compartmental
model using WinNonlin 8.2.

NEK2a = NEK2a (Homo sapiens, UniProt P51955); assay: Kinase panel radiometric filter binding (33P-ATP); type: biochemical; parameters: dose or concentration left out as unconfirmed
Method: (§11) Table S4: AMPKA kinase activity data (ADP-Glo assay)
(§12) Compound pIC50 (Fold selectivity
(§13) Table S5. Kinase selectivity screening for 9 and 24 at 1 µM against a general kinase panel of 140 targets
(§14) in radiometric filter binding assay using 33P-γ−ATP at the MRC PPU International Centre for Kinase
(§15) Profiling, University of Dundee. pIC50 values were determined for compounds with <20% activity
(§16) Kinase activity s.d. pIC50 activity s.d. pIC50

SYK = SYK (Homo sapiens, UniProt P43405); assay: Kinase panel radiometric filter binding (33P-ATP); type: biochemical; parameters: dose or concentration left out as unconfirmed
Method: as §11, §12, §13, §14, §15, §16

NUAK1 = target: T2, NUAK1 (Homo sapiens, UniProt O60285); assay: ADP-Glo biochemical assay NUAK1; parameters: purchased MRC PPU; conditions: ADP-Glo assay; for IC50: read-out: NUAK1 pIC50 (converted)
T2 sequence (O60285 1-661): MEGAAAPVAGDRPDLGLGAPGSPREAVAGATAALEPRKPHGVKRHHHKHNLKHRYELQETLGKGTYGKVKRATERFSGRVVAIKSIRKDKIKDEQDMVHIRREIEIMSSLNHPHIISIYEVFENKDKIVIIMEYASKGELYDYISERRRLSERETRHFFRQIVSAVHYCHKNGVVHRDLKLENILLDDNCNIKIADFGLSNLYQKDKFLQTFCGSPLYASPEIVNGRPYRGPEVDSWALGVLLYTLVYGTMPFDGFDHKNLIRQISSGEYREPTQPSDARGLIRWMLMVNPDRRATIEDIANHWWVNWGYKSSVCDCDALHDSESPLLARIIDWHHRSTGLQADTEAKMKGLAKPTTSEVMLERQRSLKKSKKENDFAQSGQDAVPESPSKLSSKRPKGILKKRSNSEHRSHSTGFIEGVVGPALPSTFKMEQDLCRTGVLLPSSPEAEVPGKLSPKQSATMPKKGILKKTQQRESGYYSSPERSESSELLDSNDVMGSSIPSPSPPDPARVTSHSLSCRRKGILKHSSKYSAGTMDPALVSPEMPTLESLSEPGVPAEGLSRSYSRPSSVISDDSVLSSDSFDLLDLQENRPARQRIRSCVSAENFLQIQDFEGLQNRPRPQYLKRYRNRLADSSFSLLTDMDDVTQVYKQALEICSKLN
Method: as §1, §2, §3, §4, §5, §6, §7, §8, §9, §10

TLK1 = TLK1 (Homo sapiens, UniProt Q9UKI8); assay: Kinase panel radiometric filter binding (33P-ATP); type: biochemical
Method: as §11, §12, §13, §14, §15, §16

p38g MAPK = p38g MAPK (Homo sapiens, UniProt P53778); assay: Kinase panel radiometric filter binding (33P-ATP); type: biochemical
Method: as §11, §12, §13, §14, §15, §16

TBK1 = TBK1 (Homo sapiens, UniProt Q9UHD2); assay: Kinase panel radiometric filter binding (33P-ATP); type: biochemical
Method: as §11, §12, §13, §14, §15, §16

CDK4/Cyclin D1 = target: T3, CDK4/Cyclin D1 (Homo sapiens, UniProt P11802); assay: Adapta screening assay (Thermo Fisher); type: biochemical; conditions: single point at 1 μM; read-out: CDK4 % Inh.
T3 construct: purchased Thermo Fisher Scientific
From the text: Activity pIC50 values and standard error of the mean (SEM) were estimated using a 4-parameter fit (Dotmatics). The SEM for all reported data was 0.2 or lower. See Experimental Procedures for minimum number of replicates per compound. Each experiment included a Standard compound whose pIC50 value was compared to a quality control chart. If the Standard pIC50 value fell outside the range of pIC50 +/-3 standard deviation, then the experiment was invalidated. […]
CDK4/cyclin D1: Adapta™ screening assay was performed by Thermo Fisher Scientific. The 2X CDK4/cyclin D1 / Rb Substrate mixture is prepared in 50 mM HEPES pH 7.5, 0.01% BRIJ-35, 10 mM MnCl2, 1 mM EGTA, 2 mM DTT, 0.02% NaN3. The final 10 µL Kinase Reaction consists of 7.5 - 30 ng CDK4/cyclin D1 and 1 µM Rb Substrate in 32.5 mM HEPES pH 7.5, 0.005% BRIJ-35, 5 mM MnCl2, […]
0.5 mM EGTA, 1 mM DTT, 0.01% NaN3. […]

Plasma protein binding = type: in vitro ADME; conditions: mouse plasma, read-out: PPB Fu
From the text: (§17) All single point assay determinations carried out in duplicate.

Brain protein binding = type: in vitro ADME; conditions: mouse brain tissue, read-out: BPB Fu
From the text: as §17

MDR1 (P-gp) = assay: MDR1-MDCK permeability (bi-directional); type: in vitro ADME, canine; conditions: dog; for efflux ratio at 1 h, 10 µM / efflux ratio at 60 min, 10 µM: MDCK-MDR1, ratio of B-A to A-B permeabilities, read-out: MDCK ER (efflux ratio); for Papp at 60 min, 10 µM: MDR1-MDCK
From the text: as §17

[1] = Mouse PK cassette (5 mg/kg, I.P.); conditions: for Kp uu at 0.5 h / Kp at 0.5 h: male, CD-1, mouse, ip; for Kp uu at 0.5 h: brain / plasma (unbound); for Kp at 0.5 h: brain / plasma; for AUCinf / Plasma t1/2: mouse, I.P., cassette
Method: as §18
ADMET and PK experimental methods
as §19, §20, §21, §22, §23, §24, §25, §26, §27, §28, §29, §30, §31, §32, §33, §34, §35, §36
model using WinNonlin 8.2.

MARK2 = target: T4, MARK2 (Homo sapiens, UniProt Q7KZI7); assay: ADP-Glo biochemical assay MARK2; conditions: for MARK2 pIC50 / IC50: ADP-Glo assay; for IC50: read-out: MARK2 pIC50 (converted)
T4 construct: purchased MRC PPU
Method: as §1, §2, §3, §4, §5, §6, §7, §8, §9, §10

T3 sequence (P11802 whole entry): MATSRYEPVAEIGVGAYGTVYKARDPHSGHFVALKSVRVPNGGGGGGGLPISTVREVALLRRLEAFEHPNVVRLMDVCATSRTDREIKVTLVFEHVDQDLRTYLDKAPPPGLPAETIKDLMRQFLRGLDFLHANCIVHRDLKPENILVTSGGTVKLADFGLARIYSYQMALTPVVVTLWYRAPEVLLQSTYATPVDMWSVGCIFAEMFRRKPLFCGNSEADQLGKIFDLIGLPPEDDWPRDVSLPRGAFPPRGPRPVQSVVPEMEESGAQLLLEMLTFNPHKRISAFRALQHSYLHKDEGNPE
T3 sequence (P24385 whole entry partner): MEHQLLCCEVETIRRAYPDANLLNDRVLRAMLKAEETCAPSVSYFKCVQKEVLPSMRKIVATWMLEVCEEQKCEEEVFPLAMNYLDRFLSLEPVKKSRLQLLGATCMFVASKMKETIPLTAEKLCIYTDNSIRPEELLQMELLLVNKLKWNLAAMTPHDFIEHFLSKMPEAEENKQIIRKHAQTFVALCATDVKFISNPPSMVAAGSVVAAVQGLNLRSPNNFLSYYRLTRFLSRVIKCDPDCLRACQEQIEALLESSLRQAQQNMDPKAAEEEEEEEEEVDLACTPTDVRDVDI
T4 sequence (Q7KZI7 whole entry): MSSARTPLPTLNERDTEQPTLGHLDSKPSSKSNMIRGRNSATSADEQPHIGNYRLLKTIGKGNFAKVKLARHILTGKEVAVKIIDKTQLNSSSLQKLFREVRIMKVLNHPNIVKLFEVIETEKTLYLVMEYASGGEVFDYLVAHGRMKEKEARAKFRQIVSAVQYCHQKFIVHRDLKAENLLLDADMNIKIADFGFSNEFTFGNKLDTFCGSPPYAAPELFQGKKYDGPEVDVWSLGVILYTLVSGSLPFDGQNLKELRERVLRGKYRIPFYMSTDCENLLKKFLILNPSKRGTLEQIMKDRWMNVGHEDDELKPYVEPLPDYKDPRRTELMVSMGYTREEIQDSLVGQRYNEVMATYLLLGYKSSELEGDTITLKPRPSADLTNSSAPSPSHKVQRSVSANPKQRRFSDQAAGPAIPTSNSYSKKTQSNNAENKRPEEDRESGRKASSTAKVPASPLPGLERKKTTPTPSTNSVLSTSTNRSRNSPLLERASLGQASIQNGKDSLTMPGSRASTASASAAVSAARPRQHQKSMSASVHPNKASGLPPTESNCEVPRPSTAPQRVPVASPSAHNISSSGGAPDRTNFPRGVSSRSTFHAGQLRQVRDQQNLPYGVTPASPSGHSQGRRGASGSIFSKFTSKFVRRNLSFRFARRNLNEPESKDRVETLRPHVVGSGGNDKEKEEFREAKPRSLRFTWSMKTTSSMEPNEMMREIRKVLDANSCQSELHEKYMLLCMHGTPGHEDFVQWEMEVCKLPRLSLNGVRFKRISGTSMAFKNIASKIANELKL
T1 sequence (P27448 whole entry): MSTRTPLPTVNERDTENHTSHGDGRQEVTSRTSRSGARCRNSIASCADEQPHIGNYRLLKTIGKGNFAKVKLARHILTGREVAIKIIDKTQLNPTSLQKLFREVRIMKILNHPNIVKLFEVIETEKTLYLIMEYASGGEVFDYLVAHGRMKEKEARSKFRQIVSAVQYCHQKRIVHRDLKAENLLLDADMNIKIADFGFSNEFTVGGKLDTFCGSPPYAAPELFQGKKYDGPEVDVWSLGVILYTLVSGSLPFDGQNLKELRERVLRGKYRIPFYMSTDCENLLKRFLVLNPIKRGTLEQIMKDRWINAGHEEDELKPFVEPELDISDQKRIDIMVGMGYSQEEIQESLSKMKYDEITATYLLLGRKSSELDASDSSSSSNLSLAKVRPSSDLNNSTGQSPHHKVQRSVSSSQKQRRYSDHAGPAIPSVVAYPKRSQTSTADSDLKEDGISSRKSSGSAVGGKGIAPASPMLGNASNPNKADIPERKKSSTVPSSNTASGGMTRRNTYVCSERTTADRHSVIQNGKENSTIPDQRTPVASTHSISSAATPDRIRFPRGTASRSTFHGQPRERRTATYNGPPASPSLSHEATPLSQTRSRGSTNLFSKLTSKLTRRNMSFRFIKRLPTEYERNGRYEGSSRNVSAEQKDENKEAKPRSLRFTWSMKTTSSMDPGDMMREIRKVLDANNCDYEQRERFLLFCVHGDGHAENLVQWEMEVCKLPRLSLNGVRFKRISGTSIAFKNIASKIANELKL
Sequence of TLK1 (Q9UKI8 whole entry): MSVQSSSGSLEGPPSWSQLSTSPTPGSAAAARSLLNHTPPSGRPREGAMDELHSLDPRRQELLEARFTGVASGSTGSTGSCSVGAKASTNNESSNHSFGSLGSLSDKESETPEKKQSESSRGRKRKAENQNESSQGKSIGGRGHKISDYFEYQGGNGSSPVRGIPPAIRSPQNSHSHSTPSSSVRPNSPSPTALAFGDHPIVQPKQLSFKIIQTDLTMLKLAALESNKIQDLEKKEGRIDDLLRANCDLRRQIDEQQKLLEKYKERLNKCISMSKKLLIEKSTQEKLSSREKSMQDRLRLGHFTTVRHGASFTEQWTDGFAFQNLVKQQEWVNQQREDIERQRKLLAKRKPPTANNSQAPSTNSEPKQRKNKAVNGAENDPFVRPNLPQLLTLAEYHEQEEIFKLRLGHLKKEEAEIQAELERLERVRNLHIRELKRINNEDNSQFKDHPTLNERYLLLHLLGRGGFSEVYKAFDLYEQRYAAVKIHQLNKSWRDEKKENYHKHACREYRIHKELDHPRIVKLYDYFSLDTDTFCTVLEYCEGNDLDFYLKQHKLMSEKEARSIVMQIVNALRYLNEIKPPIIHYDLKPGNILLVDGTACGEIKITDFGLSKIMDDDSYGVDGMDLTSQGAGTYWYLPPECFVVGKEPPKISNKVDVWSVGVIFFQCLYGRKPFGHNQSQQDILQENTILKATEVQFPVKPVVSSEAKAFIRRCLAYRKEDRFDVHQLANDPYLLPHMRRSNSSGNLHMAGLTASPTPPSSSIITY
Sequence of p38g MAPK (P53778 whole entry): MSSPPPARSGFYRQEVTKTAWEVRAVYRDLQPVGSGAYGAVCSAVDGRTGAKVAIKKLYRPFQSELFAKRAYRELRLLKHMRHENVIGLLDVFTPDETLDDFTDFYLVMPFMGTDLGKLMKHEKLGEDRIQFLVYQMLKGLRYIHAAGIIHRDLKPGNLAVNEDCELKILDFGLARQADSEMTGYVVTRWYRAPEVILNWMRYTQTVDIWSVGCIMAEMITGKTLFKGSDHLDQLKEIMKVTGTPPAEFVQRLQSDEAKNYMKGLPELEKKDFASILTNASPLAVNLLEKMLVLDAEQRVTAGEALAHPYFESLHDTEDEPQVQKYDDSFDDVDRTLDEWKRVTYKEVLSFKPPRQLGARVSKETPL
Sequence of TBK1 (Q9UHD2 whole entry): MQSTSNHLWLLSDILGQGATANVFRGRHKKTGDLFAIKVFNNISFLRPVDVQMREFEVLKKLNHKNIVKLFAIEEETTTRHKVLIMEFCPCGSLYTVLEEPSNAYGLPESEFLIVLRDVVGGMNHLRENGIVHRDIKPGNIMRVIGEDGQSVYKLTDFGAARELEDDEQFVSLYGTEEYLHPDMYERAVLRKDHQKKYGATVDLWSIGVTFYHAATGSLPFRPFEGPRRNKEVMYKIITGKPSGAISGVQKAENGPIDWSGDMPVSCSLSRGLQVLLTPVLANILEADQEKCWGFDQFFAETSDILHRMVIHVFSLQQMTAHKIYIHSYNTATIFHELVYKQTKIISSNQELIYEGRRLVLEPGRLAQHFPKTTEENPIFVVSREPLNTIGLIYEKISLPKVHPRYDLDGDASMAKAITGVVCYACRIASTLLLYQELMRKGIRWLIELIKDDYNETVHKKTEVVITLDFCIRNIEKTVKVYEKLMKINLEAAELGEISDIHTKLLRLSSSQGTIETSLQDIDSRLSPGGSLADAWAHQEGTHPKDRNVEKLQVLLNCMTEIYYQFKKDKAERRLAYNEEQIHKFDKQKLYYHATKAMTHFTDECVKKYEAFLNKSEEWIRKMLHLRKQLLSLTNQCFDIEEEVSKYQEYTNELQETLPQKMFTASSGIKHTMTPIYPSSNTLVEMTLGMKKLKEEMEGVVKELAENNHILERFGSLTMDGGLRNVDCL
Sequence of NEK2a (P51955 whole entry): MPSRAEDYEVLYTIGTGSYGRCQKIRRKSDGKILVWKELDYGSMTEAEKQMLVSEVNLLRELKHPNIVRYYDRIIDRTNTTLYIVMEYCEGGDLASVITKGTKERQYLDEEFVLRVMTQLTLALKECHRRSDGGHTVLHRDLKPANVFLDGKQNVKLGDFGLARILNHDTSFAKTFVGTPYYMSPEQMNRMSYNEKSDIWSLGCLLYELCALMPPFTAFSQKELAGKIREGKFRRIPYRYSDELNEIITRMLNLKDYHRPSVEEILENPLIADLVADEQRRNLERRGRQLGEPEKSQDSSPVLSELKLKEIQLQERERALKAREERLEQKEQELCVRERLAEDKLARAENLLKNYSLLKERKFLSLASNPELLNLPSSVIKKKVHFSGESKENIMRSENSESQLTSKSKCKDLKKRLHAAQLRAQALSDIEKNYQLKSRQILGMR

MARK2 Fold selectivity IC50/NUAK1 IC50 (MARK2)	Compound	MARK3 pIC50 (MARK3)	MARK3 Fold selectivity IC50/NUAK1 IC50 (MARK3)	concentration at 30 min (in vivo)	concentration at 2 h (in vivo)	% activity remaining (NEK2a)	% activity remaining (SYK)	NUAK1 pIC50 (NUAK1)	IC50 (NUAK1)	% activity remaining (TLK1)	% activity remaining (p38g MAPK)	inhibition at 1 µM (CDK4/Cyclin D1)	fraction unbound at 5 h, 1 µM (Plasma protein binding)	fraction unbound at 5 h, 1 µM (Brain protein binding)	efflux ratio at 1 h, 10 µM (MDR1 (P-gp))	Papp at 60 min, 10 µM (MDR1 (P-gp))	Kp uu at 0.5 h [1]	Kp at 0.5 h [1]	AUCinf [1]	Plasma t1/2 [1]	also measured
	Cc1cc(=O)n(C2CCCC2)c2nc(Nc3ccc(N4CC5CC(C4)N5C)cc3)ncc12 [Compound 9]	6.2	112 fold	573 ng/mL	176 ng/mL	36%	49%	8.3	5.5 nM	59%	97%	91%	0.011	0.006	4.8	1.01 ×10⁻⁶ cm/s	0.4	0.8	1358 ng·h/mL	54 min	% activity remaining (TBK1): 66%
741 fold	Cc1cc(=O)n(C2CCCC2)c2nc(Nc3ccc(N4CCN(C)CC4)cc3)ncc12 [Compound 4]	6.4	95 fold and 96 fold					8.3	4.57 nM			98%									IC50 (MARK3): 437 nM; MARK2 pIC50 (MARK2): 5.5; IC50 (MARK2): 3390 nM
603 fold	CC(C)N1CCN(c2ccc(Nc3ncc4ccn(CC5CCCO5)c4n3)cc2)CC1 (stereo not drawn) [Compound 27]	6.2	200 fold and 201 fold					8.5	3.39 nM					0.039							IC50 (MARK3): 676 nM; IC50 (MARK2): 2040 nM
	CN1C2CC1CN(c1ccc(Nc3ncc4cc(C#N)c(=O)n(C5CCCC5)c4n3)cc1)C2 [Compound 10]	5.9	83 fold	293 ng/mL	146 ng/mL			7.8	14.8 nM			98%	0.019	0.01	50	1.24 ×10⁻⁶ cm/s	0.37	0.7	1131 ng·h/mL	66 min	efflux ratio at 60 min, 10 µM (MDR1 (P-gp)): 49.5

Compound	MARK2 Fold selectivity IC50/NUAK1 IC50 (MARK2)	MARK3 pIC50 (MARK3)	MARK3 Fold selectivity IC50/NUAK1 IC50 (MARK3)	concentration at 30 min (in vivo)	concentration at 2 h (in vivo)	% activity remaining (NEK2a)	% activity remaining (SYK)	NUAK1 pIC50 (NUAK1)	IC50 (NUAK1)	% activity remaining (TLK1)	% activity remaining (p38g MAPK)	inhibition at 1 µM (CDK4/Cyclin D1)	fraction unbound at 5 h, 1 µM (Plasma protein binding)	fraction unbound at 5 h, 1 µM (Brain protein binding)	efflux ratio at 1 h, 10 µM (MDR1 (P-gp))	Papp at 60 min, 10 µM (MDR1 (P-gp))	Kp uu at 0.5 h [1]	Kp at 0.5 h [1]	AUCinf [1]	Plasma t1/2 [1]	also measured
CN1C2CC1CN(c1ccc(Nc3ncc4ccn(CC5CCOCC5)c4n3)cc1)C2 [Compound 24]	4898 fold	5.22 and 5.2	1905 fold	220 ng/mL	26.9 ng/mL	77%	81%	8.5		86%	92%	29%	0.152	0.09	71	1.05 ×10⁻⁶ cm/s	0.52	0.9	365 ng·h/mL	42 min	MARK2 pIC50 (MARK2): 4.81 and 4.8; % activity remaining (TBK1): 41%; efflux ratio at 60 min, 10 µM (MDR1 (P-gp)): 70.8
